Legend:
[1] = tested on: CD4+ HA-TCR transgenic splenocytes co-cultured with MDSCs; assay: IL-17A production by HA-stimulated splenocytes co-cultured with MDSCs (ELISA); type: cell-based, mouse; settings: splenocytes:MDSCs 3:1, HA peptide, five days, FIG. 3B
Method: Because IL-23 (p40/p19) is essential for the Th17 response, the effects of MDSCs, in the presence of GA, SP600125, or both, on IL-17A expression by CD4+ HA-TCR transgenic splenocytes stimulated with HA peptides was determined. Splenocytes from CD4+ HA-TCR transgenic mice were co-cultured with irradiated MDSCs at the ratio of 3:1 in the presence of HA peptide and SP600125, GA, or a combination of both. Five days later, the culture supernatants were collected for the determination of IL-17A concentration by ELISA.

Gr-1+CD115+ MDSCs = assay: MDSC differentiation assay (flow cytometry); type: cell-based, mouse; settings: 24 hours culture, FIG. 4A
Text: Gr-1+CD115+ MDSCs were sorted by MACS and cultured in the absence or presence of GA, SP600125, or both. Twenty-four hours later, viable cells were harvested and stained with anti-CD86, anti-CD80, anti-CD11c, anti-I-A, anti-F4/80, or isotype-matched control followed by flow cytometric analysis to assess MDSC differentiation.
To test whether differentiation of MDSCs can be inhibited or retarded by the treatment of GA, SP600125, or both, Gr-1+CD115+ MDSCs were sorted by MACS and cultured in the absence or presence of GA, SP600125, or both. Twenty-four (24) hours later, viable cells were harvested and stained with anti-CD86, anti-CD80, anti-CD11c, anti-I-A, anti-F4/80, or isotype-matched control followed by flow cytometric analysis. […] Treatment with GA or SP600125 impaired the spontaneous differentiation of MDSCs, as evidenced by the lower expressions of CD11c, MHC class II, co-stimulatory molecules, and F4/80.

DSS-induced colitis = DSS-induced colitis in vivo model; parameters: species or system C57BL/6 mice
Text: In certain aspects, the invention is related to the treatment of IBDs. Mouse models of IBD are well known in the art, and may be used to model human IBDs. For example, dextran sodium sulfate (DSS) may be administered to mice to induce IBD. In this model, mice are fed with water containing 3.5% DSS from day 0 to day 11. Following treatment, mice develop colitis. The severity of colitis is quantified (assigned a clinical score) by assessing stool consistency, bleeding, and weight loss, which ranges from 0 (healthy) to 4 (maximal severity). Histologically, DSS produces submucosal erosions, ulceration, inflammatory cell infiltration and crypt abscess as well as epithelioglandular hyperplasia. […] [Kawada et al., 2007, World J. Gastroenterol. 13: 5581-5593; Okayasu et al., 1990, Gastroenterology 98:694-702]
For adoptive transfer of MDSCs, 5×10^6 purified MDSCs suspended in PBS were administered by intravenous infusion at day 0 and day 7.
Mice were left untreated or treated with sorted MDSCs (5×10^6 cells/mouse) alone or in combination with GA and/or SP600125 (Sigma-Aldrich), on the day of disease induction. […] The severity of colitis was quantitated as a clinical score by assessing stool consistency, bleeding, and weight loss, which ranges from 0 (healthy) to 4 (maximal severity). The clinical score (weight loss, stool consistency, and bleeding) of treated mice was assessed in a double-blind fashion.
On day 11 post-IBD induction, colon tissues from treated mice were removed, fixed in 3% formaldehyde, sectioned, and stained with H&E staining to determine the pathology score of colitis. To reflect the general condition of the mice, a disease activity index (DAI) was determined by an investigator blinded to the protocol by scoring the extent of body weight loss, stool guaiac positivity or gross bleeding, and stool consistency according to the method described in Murthy et al. (1993) “Treatment of Dextran Sulfate Sodium-Induced Murine Colitis by Intracolonic Cyclosporin,” Digest. […] Stool consistency and the degree of blood in stool were evaluated on the day when animals were killed. […]

MLN T cells = assay: MLN cell proliferation assay from IBD mice; type: in vivo, mouse; settings: +PHA, 72 hours, [3H]-thymidine, day 11, DSS-treated mice, FIG. 7
Method: On day 11 after IBD induction, mice were terminated, and MLN cells were isolated and cultured in the presence or absence of PHA. [3H]-thymidine was pulsed during the last 8 hours of 72-hour culture for the measurement of T cell proliferation.
To assess the proliferative capability of T cells from treated mice, on day 11 following IBD induction, splenocytes and […] lymph node (MLN) cells from treated mice were stimulated with (+PHA) or without PHA (˜) for 72 hours. [3H]-thymidine was pulsed during the last 8 hours of 72-hour culture. […] The percentage of Treg cells is defined as the percent cells that are stained positive for CD4, CD25, and intracellular Foxp3.

multiple sclerosis = settings: GA alone, Johnson et al. (1995); cited from earlier work

In the case of “L-glutamic acid polymer with L-alanine, L-lysine and L-tyrosine, acetate (salt) [GA]”, the IL-17A production [1] is reported as “decreased”, the “spontaneous differentiation of MDSCs (CD11c, MHC class II, co-stimulatory molecules, F4/80)” value (Gr-1+CD115+ MDSCs) is reported as “impaired” and the “decrease in colonic length” value (DSS-induced colitis; day 11, in comparison with naive healthy mice, FIG. 5C) is reported as 45%. The IBD clinical score (DSS-induced colitis; scale 0-4, 3.5% DSS day 0 to 11, GA s.c., SP600125 i.p. daily, MDSCs 5×10^6 i.v. days 0 and 7, FIG. 5A) was “did not significantly lower”, the “T-cell proliferation of MLN cells” value (MLN T cells) was “lower level” and the “efficacy for treating multiple sclerosis” value (multiple sclerosis) was “only partially effective”.

Source: patent US8951529B2, “Methods of using small compounds to enhance myeloid derived suppressor cell function for treating autoimmune diseases” (Icahn School of Medicine at Mount Sinai, priority 2009, dated 2015)
